Values of other authors in patent publication US20150246117A1, “TREATMENT OF TYPE 2 DIABETES AND RELATED CONDITIONS” (priority 2012, published 2015).
Where two headings read alike, the source gives them in different places. Values belong to the compound of their own block, whether it stands above or below them.

Experiments:
[1] = for hypoglycemia in combination therapy: combined with sulfonylurea, insulin secretagogue or insulin
CYP3A4/5 = conditions: coadministration with strong CYP3A4/5 inhibitors (e.g., ketoconazole)
[2] = in vivo
[3] = co-administration of 100 mg sitagliptin for 10 days

Compound: COc1ccc2cc3[n+](cc2c1OC)CCc1cc2c(cc1-3)OCO2 [berberine]
- adverse events / tolerability in clinical studies ([1]; human, in vivo): Transient gastrointestinal adverse
- Half-life (in vivo): 3 to 4 h

Compound: CC#CCn1c(N2CCC[C@@H](N)C2)nc2c1c(=O)n(Cc1nc(C)c3ccccc3n1)c(=O)n2C [linagliptin]
- hypoglycemia in combination therapy [1]: Hypoglycemia was more commonly
- Half-life (after 5 mg dose): >100 h after 5 mg

Compound: CCCCCCCCCCCCCCCC(=O)N[C@@H](CCC(=O)NCCCC[C@H](NC(=O)[C@H](C)NC(=O)[C@H](C)NC(=O)[C@H](CCC(N)=O)NC(=O)CNC(=O)[C@H](CCC(=O)O)NC(=O)[C@H](CC(C)C)NC(=O)[C@H](Cc1ccc(O)cc1)NC(=O)[C@H](CO)NC(=O)[C@H](CO)NC(=O)[C@@H](NC(=O)[C@H](CC(=O)O)NC(=O)[C@H](CO)NC(=O)[C@@H](NC(=O)[C@H](Cc1ccccc1)NC(=O)[C@@H](NC(=O)CNC(=O)[C@H](CCC(=O)O)NC(=O)[C@H](C)NC(=O)[C@@H](N)Cc1cnc[nH]1)[C@@H](C)O)[C@@H](C)O)C(C)C)C(=O)N[C@@H](CCC(=O)O)C(=O)N[C@@H](Cc1ccccc1)C(=O)N[C@H](C(=O)N[C@@H](C)C(=O)N[C@@H](Cc1c[nH]c2ccccc12)C(=O)N[C@@H](CC(C)C)C(=O)N[C@H](C(=O)N[C@@H](CCCNC(=N)N)C(=O)NCC(=O)N[C@@H](CCCNC(=N)N)C(=O)NCC(=O)O)C(C)C)[C@@H](C)CC)C(=O)O [liraglutide]
- Immunogenicity-related events, including urticaria ([1]; treated patients in clinical trials (comparator-treated 0.4%)): Victoza-treated patients (0.8%) than among

Compound: N#C[C@@H]1C[C@@H]2C[C@@H]2N1C(=O)[C@@H](N)C12CC3CC(CC(O)(C3)C1)C2 [saxagliptin]
- saxagliptin concentrations (CYP3A4/5): increases
- Peripheral edema ([1]; combination with a thiazolidinedione (TZD) vs placebo and TZD): Peripheral edema was reported more
- Half-life (after oral 5 mg): 2.5 h after

Compound: N[C@@H](CC(=O)N1CCn2c(nnc2C(F)(F)F)C1)Cc1cc(F)c(F)cc1F [sitagliptin]
- fertility / fetal harm, animal studies or animal data [2]: JANUVIA did not impair
- hypoglycemia in combination therapy [1]: There is an increased risk of
- Half-life (after oral): 12.4 h after
- increase in area under the curve (AUC) of digoxin [3]: curve (AUC, 11%)

Compound: Dulaglutide
- adverse events / tolerability in clinical studies ([1]; human, in vivo): Gastrointestinal adverse events reported

Compound: taspoglutide
- patients showing antibodies against the drug ([1]; human, in vivo): (compared to exenatide); 49% of patients

Further lines, with some results ahead:

- rate of skin events, primarily pruritus ([1]; human, in vivo): finding being a marginally higher rate
- Half-life (in vivo): 12.4 to 21.4 h
Compound: Cn1c(=O)cc(N2CCC[C@@H](N)C2)n(Cc2ccccc2C#N)c1=O [Alogliptin]
- adverse events / tolerability in clinical studies ([1]; human, in vivo): The agent is relatively well tolerated

- Half-life (in vivo): 17 to 21 h
Compound: N[C@@H](CC(=O)N1CCc2c(nc(C(F)(F)F)nc2C(F)(F)F)C1)CN1CC(F)(F)CCC1=O [Gemigliptin]
- adverse events / tolerability in clinical studies ([1]; human, in vivo): No serious adverse events recorded.

- Half-life (in vivo): 10 to 13 h
Compound: O=C(CN[C@@H]1CCNC1)N1CCC[C@H]1B(O)O [dutogliptin]

- excretion in milk, animal studies [2]: excretion of vildagliptin
Compound: N#C[C@@H]1CCCN1C(=O)CNC12CC3CC(CC(O)(C3)C1)C2 [vildagliptin]
